# Test results published in US20180353524A1, “CANCER TREATMENT USING 2-DEOXY-2-FLUORO-L-FUCOSE IN COMBINATION WITH A CHECKPOINT INHIBITOR” (SEATTLE GENETICS, INC., priority 2015, published 2018).
# System: CMV reactive human PMBCs
# Assay: In vitro 2FF and anti-PD1 antibody combination in human PBMCs (IFNγ, IL12p70)
# Settings: 1 μg/mL anti-PD1 (Pembrolizumab) added to co-culture of 2FF matured T-cells, DCs and CMV antigen
# Experimental: CMV reactive human PMBCs from a CMV positive donor (Astarte™ Biologics) were thawed, plated into a 6-well plate and cultured overnight in DC media (30% DMEM 70% X-vivo+2 mM glutamax+10% ATB serum+1% PS). The following day the supernatant was collected to isolate T-cells and the adhering cells were washed in media and then replenished with 2 mL media supplemented with IL4 (100 ng/μL) and GMCSF (200 ng/μL) per well to differentiate and proliferate the adhering monocytes into DCs. The plate was incubated for 4-5 days and then cells were moved into a T25 flask. Each time the cells were passaged (every 2-3 days) new cytokines were given. The T-cells in the supernatant were isolated using StemSep human T-cell enrichment kit (Stemcell technologies). The T-cells were then resuspended in T-cell media (RPMI+10% Fetal calf serum, 1% PS) and spilt into two T25 flasks (with or without 100-200 μM 2FF). CD3CD28 antibody coated beads (Miltenyi Biotec) (20 μL/flask) were added to activate the T-cells. After 24 h IL2 was added (100 ng/μL). Each time the cells were passaged new IL2 and 2FF were added. […]
# IFNγ and IL12p70 in the supernatants from 5 day co-cultures were measured using a Lumenix assay and the concentration of each cytokine was calculated using an internal standard curve.
substance,measurement,value
"Pembrolizumab [anti-PD1, reference compound]","antigen specific response (IFNγ, IL12p70) of 2FF matured T-cells on addition of anti-PD1",further enhances the antigen specific response
